Entries after “also recorded” stand apart in the source; their conditions may differ.
Assays:
[1] = tested on: B16F10 cells (mouse melanoma model); test: Mouse melanoma model: B16F10 cells subcutaneously in C57BL/6J female mice; assay type: in vivo; conditions: FIG. 11, treatments administered for 7-9 days, 30 mg/kg per Table 2
Text: For in vivo studies, the drugs fosaprepitant dimeglumine salt (CAS No 265121-04-8, Selleck Chemicals), Cerenia® (Maropitant citrate injectable solution; Zoetis US), InVivoMAb Anti-mouse CTLA-4 (CD152) (BE0032, Bio cell), InVivoMAb Anti-mouse PD-1 (CD279) (BE0146, Bio cell) and Rat IgG2a k isotype (ref BE0089) were used.
B16F10 cells (1×10^6 per mouse) were subcutaneously injected into the right flank of C57BL/6J female mice (Charles River) with matrigel (Matrigel Membrane Matrix, Corning) at 50% v/v. Tumour growth was evaluated every 2/3 days. Animal vital parameters were monitored daily. When the tumours reached an average volume of 100-150 mm^3, mice were randomised into cohorts of 6 animals and treatments were administered for 7-9 days. Groups and regimens for each experiment are described in Table 2. Animals of the control group were dosed with equal volume of vehicle. Animals were euthanized according to institutional guidelines and tumour samples were excised. Tumours were snap-frozen in OCT medium (Sakura Tissue Tek) or fixed in PFA and embedded in paraffin. Several internal organs were also excised and fixed in PFA for future studies.

[2] = tested on: cell lines of Table 1 (3LL, 4T1, B16F10, CT26WT, PTEN, RT112, MCF7 cells); test: MTT cell viability (cytotoxicity) assay in tumour cell lines, FIGS. 1-9; assay type: cell-based, mouse, rat and human; conditions: cell viability after 24 hours or 48 hours
Experimental: 21 Cell lines of three different species (mouse, rat and human) were used in this study (Table 1). All of them were maintained in culture in their respective culture media (Gibco, Thermo Fisher Scientific) supplemented with 10% fetal bovine serum (FBS) (Gibco, Thermo Fisher Scientific), 2 mM L-Glutamine (Sigma-Aldrich, Merk), and Peni-Strep (50 U/ml and […]; Gibco, Thermo Fisher Scientific) in a humidified incubator at 37° C. and 5% CO2.
The cytotoxicity of the drugs in culture was evaluated using the 3-(4,5-Dimethyl-2-thiazolyl)-2,5-diphenyl-2H-tetrazolium bromide (MTT) reduction assay. The assay assesses cell viability through the indirect measurement of the activity of reductases that convert yellow soluble MTT into purple insoluble formazan salts. As MTT can only be reduced when these enzymes are active, the reaction is used as an indicator of the cell metabolic competence and, therefore, of viability.
A variable number of cells (depending on the cell line) were seeded in 96 multi-well plates and grown during 24 Hours Cell Viability. The following day the culture medium was aspirated and fresh culture medium with the drug dissolved was added to the wells. After 24 Hours Cell Viability or 48 Hours Cell Viability cell viability was measurement by adding 10 μl of a 5 mg/ml MTT solution (M5655; Sigma-Aldrich) and 100 μl of a Hcl 0.01M-SDS 10% solution 4 hours later. After 24 Hours Cell Viability, the absorbance was measured at 595 nm, using a multi-well plate reader (iMark, Bio-rad).

[3] = tested on: osteoclastic osteosarcoma clinical stage IV; test: Compassionate use of aprepitant in a patient with osteosarcoma; assay type: in vivo, human
Experimental: On Dec. 9, 2022 the patient was approved for compassionate use of aprepitant at a dose of 4200 mg orally divided into 3 doses (the total daily dose being 4200 mg) along with ifosfamide and etoposide as a fourth line of treatment. Close clinical surveillance of the patient was initiated to monitor quality of life, functional status and manifestation of adverse reactions to treatment, as well as periodic serological surveillance and measurement of response to treatment by imaging studies using the RECIST 1.1 criteria.

[4] = tested on: a range of provoked cancers and tumours; conditions: immunocompromised nude mice; 10-80 mg/kg per day, up to 28 days; cited from earlier work
[5] = tested on: osteosarcoma cell line, MG-63; conditions: immunocompromised nude mice; injected weekly at 80 mg/kg; cited from earlier work
[6] = Feb. 6, 2023, aprepitant 4200 mg per day with ifosfamide and etoposide
[7] = PET/CT Jan. 9, 2023, aprepitant 4200 mg per day with ifosfamide and etoposide
[8] = aprepitant 4200 mg per day with ifosfamide and etoposide

Compound: COc1ccc(C(C)(C)C)cc1CN[C@H]1C2CCN(CC2)[C@H]1C(c1ccccc1)c1ccccc1 [Maropitant]
- tumoral growth [1]: reduces tumoral growth

Compound: C[C@@H](O[C@H]1OCCN(Cc2nc(=O)[nH][nH]2)[C@H]1c1ccc(F)cc1)c1cc(C(F)(F)F)cc(C(F)(F)F)c1 [aprepitant, 5-[[(2R, 3S)-2-[(1R)-1-[3,5-bis(trifluoromethyl)phenyl]ethoxy]-3-(4-fluorophenyl)-4-morpholinyl]methyl]-1,2-dihydro3H-1,2,4-triazol-3-one]
- anti-cancer effects in vitro (cell viability, MTT) [2]: exhibited anti-cancer effects
- left upper nodule [3, 6]: 21 mm
- pulmonary nodule in left lower lobe [3, 6]: 16.5 mm
- pulmonary nodule in left lower nodule [3, 6]: 10 mm
- size of bilateral pulmonary nodules and masses of right predominance [3, 6]: slight increase in the size
- largest of two basal nodules, left lung [3, 7]: 20 mm
- nodule in the left upper lower lobe [3, 7]: 16 mm
- nodules in the posterior apical segment, left lung [3, 7]: 21 mm
- diameter of solid nodule, right pleura, hilar in the middle lobe ([3]; PET/CT Jan. 9, 2023, aprepitant 4200 mg per day with ifosfamide and etoposide since Dec. 9, 2022): 42 mm
- response according to RECIST 1.1 criteria, clinical and serological surveillance ([3]; aprepitant 4200 mg per day orally in 3 doses with ifosfamide and etoposide, from Dec. 9, 2022 to Feb. 15, 2023): stable disease-like response
- Karnofsky [3, 8]: 70%
- impact on the patient compared with the expected course of the disease [3, 8]: positive impact
- symptomatology by the Edmonton scale [3, 8]: no increase in symptoms
- ECOG functional status ([3]; aprepitant 4200 mg per day with ifosfamide and etoposide, since the start of follow-up): 1
- EORTC QLQ-C30 overall score (quality of life) ([3]; aprepitant 4200 mg per day with ifosfamide and etoposide, since the start of therapy): 50%
- tolerance ([3]; aprepitant 4200 mg per day with ifosfamide and etoposide, with supportive treatment): adequate tolerance
- effect on tumour size / growth [4]: somewhat effective; also recorded: slows the growth of the tumours without any net reduction in the tumour sizes

Compound: CNC[C@H](O)[C@@H](O)[C@H](O)[C@H](O)CO.CNC[C@H](O)[C@@H](O)[C@H](O)[C@H](O)CO.C[C@@H](O[C@H]1OCCN(Cc2nc(=O)n(P(=O)(O)O)[nH]2)[C@H]1c1ccc(F)cc1)c1cc(C(F)(F)F)cc(C(F)(F)F)c1 [fosaprepitant-dimeglumine, 1-Deoxy-1-(methylamino)-D-glucitol[3-[[(2R,3S)-2-[(1R)-1-[3,5-bis(trifluoromethyl)phenyl]ethoxy]-3-(4-fluorophenyl)-4-morpholinyl]methyl]-2,5-dihydro-5-oxo-1H-1,2,4 triazol-1-yl]phosphonate (2:1) (salt)]
- tumoral growth [1]: reduces tumoral growth

Compound: C[C@@H](O[C@H]1OCCN(Cc2nc(O)n(P(=O)(O)O)n2)[C@H]1c1ccc(F)cc1)c1cc(C(F)(F)F)cc(C(F)(F)F)c1 [fosaprepitant]
- anti-cancer effects in vitro (cell viability, MTT) [2]: exhibited anti-cancer effects
- therapeutic efficacy against MG-63 xenograft [5]: some therapeutic efficacy

Compound: Cc1ccccc1-c1cc(N2CCN(C)CC2)ncc1N(C)C(=O)C(C)(C)c1cc(C(F)(F)F)cc(C(F)(F)F)c1 [netupitant]
- anti-cancer effects in vitro (cell viability, MTT) [2]: exhibited anti-cancer effects

Reference: patent US20260102417A1, “COMPOSITIONS FOR THE TREATMENT AND PREVENTION OF CANCER” (Keyzell Holding S.L., priority 2022, published 2026)
